The target in assay [1] is T1, Tyrosinase (Agaricus bisporus) (UniProt O42713).
T1 sequence (whole entry): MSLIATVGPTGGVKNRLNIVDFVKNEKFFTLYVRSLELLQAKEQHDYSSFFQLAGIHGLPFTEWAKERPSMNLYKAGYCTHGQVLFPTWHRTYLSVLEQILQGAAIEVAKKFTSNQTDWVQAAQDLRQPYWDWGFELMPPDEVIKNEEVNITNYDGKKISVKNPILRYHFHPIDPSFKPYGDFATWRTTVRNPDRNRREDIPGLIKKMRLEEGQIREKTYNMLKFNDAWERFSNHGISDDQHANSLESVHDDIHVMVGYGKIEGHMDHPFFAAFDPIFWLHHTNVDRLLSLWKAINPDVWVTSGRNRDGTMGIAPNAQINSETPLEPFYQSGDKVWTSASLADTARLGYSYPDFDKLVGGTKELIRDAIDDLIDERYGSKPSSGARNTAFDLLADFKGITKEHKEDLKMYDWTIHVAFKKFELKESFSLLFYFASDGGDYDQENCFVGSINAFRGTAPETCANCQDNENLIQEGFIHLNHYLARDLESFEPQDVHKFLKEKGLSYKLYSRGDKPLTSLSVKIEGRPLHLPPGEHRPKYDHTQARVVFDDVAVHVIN
In words: Inhibition of mushroom tyrosinase at 100 uM preincubated for 10 mins before addition of 1.7 mM L-tyrosine measured after 20 mins by spectrophotometric method.

In another assay the target is T2, Tyrosinase (Agaricus bisporus, UniProt O42713).
T2 sequence (O42713 whole entry): T1 sequence (whole entry)
Description: (§1) Inhibition of mushroom tyrosinase preincubated for 10 mins before addition of 1.7 mM L-tyrosine measured after 20 mins by spectrophotometric method.

For assay [2], the target named is T1, Tyrosinase (Agaricus bisporus). The assay is described as §1.

`O=C1C[C@@H](c2ccc(O)cc2)Oc2cc(O)cc(O)c21`: the inhibition – broadly, the drop in the measured response relative to a control, in per cent – in assay [1] stood at 2.8%.

For the molecule `COc1ccc([C@@H]2CC(=O)c3c(O)cc(O)cc3O2)cc1O`, in assay [1], the inhibition was found to be 0%.

`CC(C)=CCc1cccc([C@@H]2CC(=O)c3c(O)cc4c(c3O2)C=CC(C)(C)O4)c1O` had an inhibition in assay [1] of 6.4%.

On to `CC1(C)C=Cc2c(cc(O)c3c2O[C@H](c2ccccc2)CC3=O)O1`, for which, in assay [1], the inhibition came to 16.2%.

Turning to `CC(C)=CCc1cccc([C@@H]2CC(=O)c3c(O)cc(O)c(CC=C(C)C)c3O2)c1O`, on Tyrosinase, the IC50 (usually the concentration needed to halve the response being measured) is 68.5 µM. Also, the inhibition in assay [1] worked out at 87.8%.

As to `C=CC(C)(C)c1ccc(O)c([C@@H]2CC(=O)c3c(O)cc(O)c(CC=C(C)C)c3O2)c1`, the IC5 in assay [2] stood at 27.5 µM. The inhibition in assay [1] is 82.1%.

Values taken from ChEMBL document CHEMBL1687862, “Prenylated flavanones with anti-tyrosinase activity from Dalea boliviana” (J Nat Prod, 2011).
